The test system of one assay is cutworm (Agrotis sp.). Nature of the assay: Field seed-treatment trial, cutworm larvae count per plot. Format: in vivo. To be noted: for Control (%) Observed: seed treatment, field with heavy Agrotis sp. population, larvae per plot counted 22 days after planting, 4 replicates, fludioxonil + mefenoxam base treatment. An excerpt:
(§1) An unexpected effect exists whenever the action of an active ingredient combination is greater than the sum of the actions of the individual components.
(§2) The action to be expected E for a given active ingredient combination obeys the so-called COLBY formula and can be calculated as follows (COLBY, S. R. “Calculating synergistic and antagonistic responses of herbicide combination”. Weeds, Vol. 15, pages 20-22; 1967):
(§3) ppm=milligrams of active ingredient (=a.i.) per liter of spray mixture X=% action by active ingredient A) using p ppm of active ingredient Y=% action by active ingredient B) using q ppm of active ingredient.
(§4) According to COLBY, the expected (additive) action of active ingredients A)+B) using p+q ppm of active ingredient is
(§5) If the action actually observed (O) is greater than the expected action (E), then the action of the combination is super-additive, i.e. there is a synergistic effect.
In a field having a heavy population of cutworm (Agrotis sp.), seeds are planted that have the following treatments: • (a) a compound of formula (X) (0.6 mg ai/seed) • (b) thiamethoxam (0.63 mg ai/seed) • (c) a compound of formula (X) (0.6 mg ai/seed)+thiamethoxam (0.63 mg ai/seed)
For all treatments, including check, fludioxonil (2.5 g ai/100 kg seeds) and mefenoxam (1.0 g ai/100 kg seeds) were used as a fungicide base treatment.
Assessment: Count number larvae per plot (22 days after planting) Number of replicates: 4

Assay [1] has as its system cutworm (Spodoptera littoralis). As to the kind of experiment: Field seed-treatment trial, plant count per plot. Particulars: field with heavy Spodoptera littoralis population, plants per plot counted 13 days after planting, 4 replicates, fludioxonil + mefenoxam base treatment. Format: in vivo.
Excerpt: as §1, §2, §3, §4, §5
In a field having a heavy population of cutworm (Spodoptera littoralis), seeds are planted that have the following treatments: • (a) a compound of formula (X) (0.6 mg ai/seed) • (b) thiamethoxam (0.63 mg ai/seed) • (c) a compound of formula (X) (0.6 mg ai/seed)+thiamethoxam (0.63 mg ai/seed)
For all treatments, including check, fludioxonil (2.5 g ai/100 kg seeds) and mefenoxam (1.0 g ai/100 kg seeds) were used as a fungicide base treatment. […]

Regarding “mixture of 5,6-Dihydro-3′-O-ethyl Spinosyn J (RN: 187166-40-1 and 3′-O-Ethyl Spinosyn L (RN: 187166-15-0) in a weight ratio of 50-90%:10-50% [(a)]”, the “Control (%) Colby expected” value with cutworm (Agrotis sp.) (expected (additive) action by COLBY formula, Agrotis sp., 22 days after planting) is reported as 15%. Moreover, in the assay on cutworm (Agrotis sp.), the “Control (%) Observed” value worked out at 50%. Moreover, the “% Control Observed” value in assay [1] was 48%.

As to `CN1COCN(Cc2cnc(Cl)s2)/C1=N\[N+](=O)[O-]` [(b), thiamethoxam], in the assay on cutworm (Agrotis sp.), the “Control (%) Observed” value stood at 31%. For the same compound, the “% Control Observed” value in assay [1] is listed as 40%.

The record behind these values is patent US20110263429A1, “Pesticidal Combinations” (priority 2008, published 2011).
